Measurements published in PubChem BioAssay AID1963424 (Molecular Pharmacology Branch, DTP, NCI, 2024).

System: 327498-153-R-J2-PDC complex spheroid growth, % test/control
Experiment: Anticancer human tumor 327498-153-R-J2-PDC patient-derived uterine carcinosarcoma cell line growth inhibition [Asc]
Details: for IC50: curve of first compound; for viability, T/C: stronger effect = lower value
In short: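 Stromal components (HUVEC and hMSC) are co-assembled with the cancer cells into multicellular spheroids. Drugs are then added singly or paired, at concentrations falling by half-log increments from a clinically achievable maximum, capped at 10 microM without known Cmax.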

[1] = second compound 0.1 µM, first compound 0.0316 µM
[2] = second compound 0.1 µM, first compound 0.1 µM
[3] = second compound 0.1 µM, first compound 0.316 µM
[4] = second compound 0.1 µM, first compound 1 µM
[5] = second compound 0.316 µM, first compound 0.0316 µM
[6] = second compound 0.316 µM, first compound 0.1 µM
[7] = second compound 0.316 µM, first compound 0.316 µM
[8] = second compound 0.316 µM, first compound 1 µM
[9] = second compound 1 µM, first compound 0.0316 µM
[10] = second compound 1 µM, first compound 0.1 µM
[11] = second compound 1 µM, first compound 0.316 µM
[12] = second compound 1 µM, first compound 1 µM
[13] = second compound 3.16 µM, first compound 0.0316 µM
[14] = second compound 3.16 µM, first compound 0.1 µM
[15] = second compound 3.16 µM, first compound 0.316 µM
[16] = second compound 3.16 µM, first compound 1 µM
[17] = second compound 10 µM, first compound 0.0316 µM
[18] = second compound 10 µM, first compound 0.1 µM
[19] = second compound 10 µM, first compound 0.316 µM
[20] = second compound 10 µM, first compound 1 µM
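Further: spheroids exposed to compound for 7 days after 3 days of growth.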
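Wherever viability, T/C is given: 100% = DMSO vehicle control wells.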

In the case of `C#Cc1c(F)ccc2cc(O)cc(-c3ncc4c(N5CC6CCC(C5)N6)nc(OCC56CCCN5CC(F)C6)nc4c3F)c12` (stereo not given) + Cc1c(S(C)(=O)=O)c(-c2cc(F)cc(N3CCN(c4ccc(NS(=O)(=O)c5ccc(NC(CCN6CCC(C(=O)OCCCP(=O)(O)O)CC6)CSc6ccccc6)c(S(=O)(=O)C(F)(F)F)c5)cc4)CC3)c2)c(-c2ccc(Cl)cc2)n1C(C)C, the IC50 (second compound 0.1 µM) is reported as over 10000 nM, the IC50 (second compound 0.316 µM) is reported as 5990 nM and the IC50 (second compound 1 µM) is reported as 3180 nM. The IC50 (second compound 3.16 µM) was 5040 nM, the IC50 (second compound 10 µM) was over 10000 nM and the viability, T/C [1] was 97.2%. For the same compound, the viability, T/C [2] was 107%, the viability, T/C [3] was 82.5% and the viability, T/C [4] was 75.1%. It also gave a viability, T/C (second compound 0.1 µM, first compound 3.16 µM) of 61.7%, a viability, T/C (second compound 0.1 µM, first compound 10 µM) of 50.1% and a viability, T/C [5] of 102%. The viability, T/C [6] was 88.9%, the viability, T/C [7] was 88.3% and the viability, T/C [8] was 65.8%. The viability, T/C (second compound 0.316 µM, first compound 3.16 µM) was 53.8%, the viability, T/C (second compound 0.316 µM, first compound 10 µM) was 47.3% and the viability, T/C [9] was 90.6%. The viability, T/C [10] was 101%, the viability, T/C [11] was 81% and the viability, T/C [12] was 71.1%. It also gave a viability, T/C (second compound 1 µM, first compound 3.16 µM) of 47.9%, a viability, T/C (second compound 1 µM, first compound 10 µM) of 43.8% and a viability, T/C [13] of 96.6%. The viability, T/C [14] was 87.5%, the viability, T/C [15] was 70.8% and the viability, T/C [16] was 69.7%. For the same compound, the viability, T/C (second compound 3.16 µM, first compound 3.16 µM) was 51.4%, the viability, T/C (second compound 3.16 µM, first compound 10 µM) was 44.4% and the viability, T/C [17] was 166%. The viability, T/C [18] was 165%, the viability, T/C [19] was 150% and the viability, T/C [20] was 145%. The viability, T/C (second compound 10 µM, first compound 3.16 µM) was 133% and the viability, T/C (second compound 10 µM, first compound 10 µM) was 86.6%.
For `CNC(C)C(=O)NC1CN(S(=O)(=O)c2cccc(S(=O)(=O)N3CCC4CCC(C(=O)NC(c5ccccc5)c5ccccc5)N4C(=O)C(NC(=O)C(C)NC)C3)c2)CCC2CCC(C(=O)NC(c3ccccc3)c3ccccc3)N2C1=O` (stereo not given) + Cc1c(S(C)(=O)=O)c(-c2cc(F)cc(N3CCN(c4ccc(NS(=O)(=O)c5ccc(NC(CCN6CCC(C(=O)OCCCP(=O)(O)O)CC6)CSc6ccccc6)c(S(=O)(=O)C(F)(F)F)c5)cc4)CC3)c2)c(-c2ccc(Cl)cc2)n1C(C)C, the IC50 (second compound 0.1 µM) was over 1000 nM, the IC50 (second compound 0.316 µM) was over 1000 nM and the IC50 (second compound 1 µM) was over 1000 nM. The IC50 (second compound 3.16 µM) was over 1000 nM, the IC50 (second compound 10 µM) was over 1000 nM and the viability, T/C (second compound 0.1 µM, first compound 0.00316 µM) was 94.1%. For the same compound, the viability, T/C (second compound 0.1 µM, first compound 0.01 µM) was 91.2%, the viability, T/C [1] was 98% and the viability, T/C [2] was 92.3%. The viability, T/C [3] was 93.8%, the viability, T/C [4] was 82.4% and the viability, T/C (second compound 0.316 µM, first compound 0.00316 µM) was 93.1%. The viability, T/C (second compound 0.316 µM, first compound 0.01 µM) was 93.3%, the viability, T/C [5] was 96.6% and the viability, T/C [6] was 87.2%. The viability, T/C [7] was 87.7%, the viability, T/C [8] was 83.9% and the viability, T/C (second compound 1 µM, first compound 0.00316 µM) was 100%. It also gave a viability, T/C (second compound 1 µM, first compound 0.01 µM) of 90.6%, a viability, T/C [9] of 97% and a viability, T/C [10] of 80.3%. It also gave a viability, T/C [11] of 82.1%, a viability, T/C [12] of 92.2% and a viability, T/C (second compound 3.16 µM, first compound 0.00316 µM) of 84.4%. The viability, T/C (second compound 3.16 µM, first compound 0.01 µM) was 90.8%, the viability, T/C [13] was 88.4% and the viability, T/C [14] was 86%. It also gave a viability, T/C [15] of 89.8%, a viability, T/C [16] of 85% and a viability, T/C (second compound 10 µM, first compound 0.00316 µM) of 173%. It also gave a viability, T/C (second compound 10 µM, first compound 0.01 µM) of 166%, a viability, T/C [17] of 156% and a viability, T/C [18] of 146%. It also gave a viability, T/C [19] of 153% and a viability, T/C [20] of 136%.
`Cc1nc(N2CCC3(CC2)COC(C)C3N)c(CO)nc1Sc1ccnc(N)c1Cl` (stereo not given) + Cc1c(S(C)(=O)=O)c(-c2cc(F)cc(N3CCN(c4ccc(NS(=O)(=O)c5ccc(NC(CCN6CCC(C(=O)OCCCP(=O)(O)O)CC6)CSc6ccccc6)c(S(=O)(=O)C(F)(F)F)c5)cc4)CC3)c2)c(-c2ccc(Cl)cc2)n1C(C)C gave an IC50 (second compound 0.1 µM) of 1560 nM, an IC50 (second compound 0.316 µM) of 625 nM and an IC50 (second compound 1 µM) of 594 nM. The IC50 (second compound 3.16 µM) was 829 nM, the IC50 (second compound 10 µM) was over 3000 nM and the viability, T/C (second compound 0.1 µM, first compound 0.00949 µM) was 98.7%. It also gave a viability, T/C (second compound 0.1 µM, first compound 0.03 µM) of 90.4%, a viability, T/C (second compound 0.1 µM, first compound 0.0949 µM) of 83.8% and a viability, T/C (second compound 0.1 µM, first compound 0.3 µM) of 65.8%. It also gave a viability, T/C (second compound 0.1 µM, first compound 0.949 µM) of 54.8%, a viability, T/C (second compound 0.1 µM, first compound 3 µM) of 44.5% and a viability, T/C (second compound 0.316 µM, first compound 0.00949 µM) of 94.9%. The viability, T/C (second compound 0.316 µM, first compound 0.03 µM) was 94.2%, the viability, T/C (second compound 0.316 µM, first compound 0.0949 µM) was 70.2% and the viability, T/C (second compound 0.316 µM, first compound 0.3 µM) was 59.5%. For the same compound, the viability, T/C (second compound 0.316 µM, first compound 0.949 µM) was 46.6%, the viability, T/C (second compound 0.316 µM, first compound 3 µM) was 38.9% and the viability, T/C (second compound 1 µM, first compound 0.00949 µM) was 95.3%. For the same compound, the viability, T/C (second compound 1 µM, first compound 0.03 µM) was 93.6%, the viability, T/C (second compound 1 µM, first compound 0.0949 µM) was 68.6% and the viability, T/C (second compound 1 µM, first compound 0.3 µM) was 58.4%. For the same compound, the viability, T/C (second compound 1 µM, first compound 0.949 µM) was 47.1%, the viability, T/C (second compound 1 µM, first compound 3 µM) was 38.3% and the viability, T/C (second compound 3.16 µM, first compound 0.00949 µM) was 98%. For the same compound, the viability, T/C (second compound 3.16 µM, first compound 0.03 µM) was 92%, the viability, T/C (second compound 3.16 µM, first compound 0.0949 µM) was 65.1% and the viability, T/C (second compound 3.16 µM, first compound 0.3 µM) was 64.6%. For the same compound, the viability, T/C (second compound 3.16 µM, first compound 0.949 µM) was 47%, the viability, T/C (second compound 3.16 µM, first compound 3 µM) was 42.5% and the viability, T/C (second compound 10 µM, first compound 0.00949 µM) was 179%. For the same compound, the viability, T/C (second compound 10 µM, first compound 0.03 µM) was 178%, the viability, T/C (second compound 10 µM, first compound 0.0949 µM) was 145% and the viability, T/C (second compound 10 µM, first compound 0.3 µM) was 142%. For the same compound, the viability, T/C (second compound 10 µM, first compound 0.949 µM) was 138% and the viability, T/C (second compound 10 µM, first compound 3 µM) was 117%.
